Results from patent US20250388542A1, “ANALOGUES OF PENTAMIDINE AND USES THEREFOR” (Auransa Inc., priority 2018, published 2025).
“Also recorded” adds a separate entry of the source.

Assays:
[1] = tested on: COLO 205-Luc colon cancer tumor cells; experiment: Colon orthotopic in vivo study; conditions: for Body weight (mean ± SEM): in g (unit assumed)
Description: Approximately 2.0× Luciferase stably expressing colon cancer tumor cells (COLO 205-Luc) cells suspended in 30 μl of DPBS were injected into cecum wall of BALB/c nude mice.
The animals were assigned into groups using an Excel-based randomization software performing stratified randomization based upon their bioluminescence intensity. Treatment was initiated according to the predetermined regimen as shown in the experimental design table.
Mice were administered compound 1 at 10 mg/k daily, 20 mg/kg daily, 10 mg/kg twice daily, 20 mg/kg twice daily, or 40 mg/kg daily.
The major efficacy endpoint was bioluminescence (intensity values and change from baseline). The surgically inoculated mice were weighed and intraperitoneally administered luciferin at a dose of 150 mg/kg. Ten minutes after the luciferin injection, the animals were pre-anesthetized with the mixture gas of oxygen and isoflurane. When the animals were in a complete anesthetic state, the mice were moved into the imaging chamber for bioluminescence measurements with an IVIS (Lumina II) imaging system. The bioluminescence of the whole animal body, including primary and metastatic tumors, was measured and recorded once per week.
Tumor Growth Inhibition (TGI) was calculated for each group using the formula: TGI (%)=[1−(Ti−T0)/(Vi−V0)]×100; Ti is the average tumor bioluminescence value of a treatment group on a given day, T0 is the average tumor bioluminescence value of the treatment group on day 0, Vi is the average tumor bioluminescence value of the vehicle control group on the same day with Ti, and V0 is the average tumor bioluminescence value of the vehicle group on day 0.
For comparison among three or more groups, a one-way ANOVA was performed. When a non-significant F-statistics (a ratio of treatment variance to the error variance) was obtained, comparisons between groups were carried out with Dunnett t(2-sided). All data were analyzed using SPSS 17.0. p<0.05 is considered to be statistically significant.

HCC1954 = experiment: CellTiter-Glo cytotoxicity, cancer cell line panel / breast cancer study; assay type: cell-based; conditions: Homo sapiens; HCC1954, Ductal breast carcinoma
Description: (§1) The objective of this study is to investigate potential cell killing effect of Compounds 1-15 on 3 cancer cell lines. 50% inhibition concentration (IC50) was determined for these compounds in various cancer cell lines using CellTiter-Glo™ luminescent cell viability assay at different compound concentrations. Each cell line (e.g., NCI-H209; NCI-H69; and SW1271) was treated with Compounds 1-15 and culture medium contains 0.2% [v/v] DMSO vehicle control. All the cells were cultured in the media supplemented with 10-20% fetal bovine serum at 37° C., 5% CO2 and 95% humidity.
(§2) The objective of this study is to investigate the effect of Compound 1 on cytotoxicity against 61 different types of cancer cell lines. IC50 were values were obtained using CellTiter-Glo™ as described above. Each cell line shown in Table 3 was treated with Compound 1, a standard chemotherapy drug, cisplatin, as reference control and culture medium contains 0.2% [v/v] DMSO vehicle control. All cancer cell lines were cultured in media supplemented with 10-20% fetal bovine serum at 37° C., 5% CO2 and 95% humidity.
(§3) The objective of this study is to investigate the effect of Compound 1 on cell viability of various types of breast cancer. Four different breast cancer cell lines were employed in the study. Each cell line shown in Table 5 was treated with Compound 1 and standard of care (cisplatin) and culture medium contains 0.2% [v/v] DMSO vehicle control and IC50 values were obtained as described above. The raw data values from the CellTiter-Glo™ cell viability assay expressed in relative luminescence units were normalized to the vehicle for each individual plate, and any reduction in luminescence indicated a decrease in viability (%). The data was analyzed in GraphPad PRISM using a non-linear sigmoidal plot with variable slope (asymmetric four-point linear regression), and an IC50 value for each compound was generated. The experiment tested pentamidine, compound 1, and standard-of-care control Cisplatin in full growth media for 8 days. Cells were initially treated with the test compounds on Day 0, and the cells were then replenished with fresh compound dilutions on Day 3. Pentamidine, Compound 1, and cisplatin were tested at 9 concentration points; 100, 33.33, 11.11, 3.70, 1.23, 0.41, 0.14, 0.05, and 0.02 μM (final DMSO concentration=0.5%).

DU4475 = experiment: as above; assay type: cell-based; conditions: Homo sapiens, DU-4475; DU4475, Breast carcinoma
Description: as §1, §2, §3

MCF7 = experiment: as above; assay type: cell-based; conditions: Homo sapiens; MCF7, Invasive ductal carcinoma
Description: as §1, §2, §3

ZR-75-1 = experiment: as above; assay type: cell-based; conditions: Homo sapiens; ZR-75-1, Invasive ductal carcinoma
Description: as §1, §2, §3

[2] = 10 mg/kg, BID, day 0 after the start of treatment
[3] = 10 mg/kg, QD, day 0 after the start of treatment
[4] = 20 mg/kg, BID, day 0 after the start of treatment
[5] = 20 mg/kg, QD, day 0 after the start of treatment
[6] = 40 mg/kg, QD, day 0 after the start of treatment

In the case of `N=C(N)c1ccc(OCCCCCOc2ccc(C(=N)N)nc2)cc1` [Compound 1, 5-(5-(4-carbamimidoylphenoxy)pentyloxy)picolinimidamide], the “Relative bioluminescence (mean ± SEM)” value [1, 2] is reported as 100 ± 0%, the “Body weight (mean ± SEM)” value [1, 2] is reported as 21.0 ± 0.4 and the “Body weight (mean ± SEM)” value ([1]; 10 mg/kg, BID, day 3) is reported as 21.2 ± 0.4. For the same compound, the “Relative bioluminescence (mean ± SEM)” value ([1]; 10 mg/kg, BID, day 7) was 447 ± 103%, the “Body weight (mean ± SEM)” value ([1]; 10 mg/kg, BID, day 7) was 21.2 ± 0.4 and the “Body weight (mean ± SEM)” value ([1]; 10 mg/kg, BID, day 10) was 21.2 ± 0.3. The “Relative bioluminescence (mean ± SEM)” value ([1]; 10 mg/kg, BID, day 14) was 1033 ± 385%, the “Body weight (mean ± SEM)” value ([1]; 10 mg/kg, BID, day 14) was 21.8 ± 0.4 and the “Body weight (mean ± SEM)” value ([1]; 10 mg/kg, BID, day 17) was 22.1 ± 0.4. The “Relative bioluminescence (mean ± SEM)” value ([1]; 10 mg/kg, BID, day 22) was 2993 ± 1325%, the “Body weight (mean ± SEM)” value ([1]; 10 mg/kg, BID, day 22) was 21.2 ± 0.4 and the “Body weight (mean ± SEM)” value ([1]; 10 mg/kg, BID, day 24) was 21.5 ± 0.3. The “Relative bioluminescence (mean ± SEM)” value ([1]; 10 mg/kg, BID, day 28) was 2715 ± 950%, the “Body weight (mean ± SEM)” value ([1]; 10 mg/kg, BID, day 28) was 22.0 ± 0.3 and the “Relative bioluminescence (mean ± SEM)” value [1, 3] was 100 ± 0%. For the same compound, the “Body weight (mean ± SEM)” value [1, 3] was 20.9 ± 0.5, the “Body weight (mean ± SEM)” value ([1]; 10 mg/kg, QD, day 3) was 21.4 ± 0.5 and the “Relative bioluminescence (mean ± SEM)” value ([1]; 10 mg/kg, QD, day 7) was 351 ± 88%. The “Body weight (mean ± SEM)” value ([1]; 10 mg/kg, QD, day 7) was 21.6 ± 0.5, the “Body weight (mean ± SEM)” value ([1]; 10 mg/kg, QD, day 10) was 21.5 ± 0.4 and the “Relative bioluminescence (mean ± SEM)” value ([1]; 10 mg/kg, QD, day 14) was 1425 ± 930%. The “Body weight (mean ± SEM)” value ([1]; 10 mg/kg, QD, day 14) was 21.7 ± 0.4, the “Body weight (mean ± SEM)” value ([1]; 10 mg/kg, QD, day 17) was 21.7 ± 0.4 and the “Relative bioluminescence (mean ± SEM)” value ([1]; 10 mg/kg, QD, day 22) was 2819 ± 1388%. The “Body weight (mean ± SEM)” value ([1]; 10 mg/kg, QD, day 22) was 21.7 ± 0.5, the “Body weight (mean ± SEM)” value ([1]; 10 mg/kg, QD, day 24) was 22.2 ± 0.6 and the “Relative bioluminescence (mean ± SEM)” value ([1]; 10 mg/kg, QD, day 28) was 3171 ± 1602%. For the same compound, the “Body weight (mean ± SEM)” value ([1]; 10 mg/kg, QD, day 28) was 22.6 ± 0.5, the reducing tumor growth ([1]; 20 mg/kg or 40 mg/kg daily) was “non-statistically significant trend” and the “Relative bioluminescence (mean ± SEM)” value [1, 4] was 100 ± 0%. The “Body weight (mean ± SEM)” value [1, 4] was 20.9 ± 0.5, the “Body weight (mean ± SEM)” value ([1]; 20 mg/kg, BID, day 3) was 20.9 ± 0.5 and the “Relative bioluminescence (mean ± SEM)” value ([1]; 20 mg/kg, BID, day 7) was 299 ± 91%. For the same compound, the “Body weight (mean ± SEM)” value ([1]; 20 mg/kg, BID, day 7) was 21.1 ± 0.5, the “Body weight (mean ± SEM)” value ([1]; 20 mg/kg, BID, day 10) was 21.1 ± 0.5 and the “Relative bioluminescence (mean ± SEM)” value ([1]; 20 mg/kg, BID, day 14) was 1108 ± 433%. The “Body weight (mean ± SEM)” value ([1]; 20 mg/kg, BID, day 14) was 21.5 ± 0.6, the “Body weight (mean ± SEM)” value ([1]; 20 mg/kg, BID, day 17) was 21.6 ± 0.6 and the “Relative bioluminescence (mean ± SEM)” value ([1]; 20 mg/kg, BID, day 22) was 2340 ± 1230%. For the same compound, the “Body weight (mean ± SEM)” value ([1]; 20 mg/kg, BID, day 22) was 20.9 ± 0.5, the “Body weight (mean ± SEM)” value ([1]; 20 mg/kg, BID, day 24) was 21.3 ± 0.5 and the “Relative bioluminescence (mean ± SEM)” value ([1]; 20 mg/kg, BID, day 28) was 1877 ± 1076%. For the same compound, the “Body weight (mean ± SEM)” value ([1]; 20 mg/kg, BID, day 28) was 21.7 ± 0.5, the “Relative bioluminescence (mean ± SEM)” value [1, 5] was 100 ± 0% and the “Body weight (mean ± SEM)” value [1, 5] was 20.8 ± 0.4. The “Body weight (mean ± SEM)” value ([1]; 20 mg/kg, QD, day 3) was 20.8 ± 0.3, the “Relative bioluminescence (mean ± SEM)” value ([1]; 20 mg/kg, QD, day 7) was 171 ± 46% and the “Body weight (mean ± SEM)” value ([1]; 20 mg/kg, QD, day 7) was 20.8 ± 0.4. For the same compound, the “Body weight (mean ± SEM)” value ([1]; 20 mg/kg, QD, day 10) was 21.0 ± 0.3, the “Relative bioluminescence (mean ± SEM)” value ([1]; 20 mg/kg, QD, day 14) was 817 ± 269% and the “Body weight (mean ± SEM)” value ([1]; 20 mg/kg, QD, day 14) was 21.2 ± 0.3. For the same compound, the “Body weight (mean ± SEM)” value ([1]; 20 mg/kg, QD, day 17) was 21.3 ± 0.4, the “Relative bioluminescence (mean ± SEM)” value ([1]; 20 mg/kg, QD, day 22) was 923 ± 354% and the “Body weight (mean ± SEM)” value ([1]; 20 mg/kg, QD, day 22) was 21.1 ± 0.4. For the same compound, the “Body weight (mean ± SEM)” value ([1]; 20 mg/kg, QD, day 24) was 21.6 ± 0.3, the “Relative bioluminescence (mean ± SEM)” value ([1]; 20 mg/kg, QD, day 28) was 1613 ± 1022% and the “Body weight (mean ± SEM)” value ([1]; 20 mg/kg, QD, day 28) was 21.5 ± 0.4. The “Relative bioluminescence (mean ± SEM)” value [1, 6] was 100 ± 0%, the “Body weight (mean ± SEM)” value [1, 6] was 20.7 ± 0.5 and the “Body weight (mean ± SEM)” value ([1]; 40 mg/kg, QD, day 3) was 20.7 ± 0.5. The “Relative bioluminescence (mean ± SEM)” value ([1]; 40 mg/kg, QD, day 7) was 210 ± 57%, the “Body weight (mean ± SEM)” value ([1]; 40 mg/kg, QD, day 7) was 20.2 ± 0.4 and the “Body weight (mean ± SEM)” value ([1]; 40 mg/kg, QD, day 10) was 20.3 ± 0.5. The “Relative bioluminescence (mean ± SEM)” value ([1]; 40 mg/kg, QD, day 14) was 357 ± 109%, the “Body weight (mean ± SEM)” value ([1]; 40 mg/kg, QD, day 14) was 20.5 ± 0.5 and the “Body weight (mean ± SEM)” value ([1]; 40 mg/kg, QD, day 17) was 20.5 ± 0.5. For the same compound, the “Relative bioluminescence (mean ± SEM)” value ([1]; 40 mg/kg, QD, day 22) was 525 ± 145%, the “Body weight (mean ± SEM)” value ([1]; 40 mg/kg, QD, day 22) was 20.4 ± 0.5 and the “Body weight (mean ± SEM)” value ([1]; 40 mg/kg, QD, day 24) was 21.0 ± 0.5. For the same compound, the “Relative bioluminescence (mean ± SEM)” value ([1]; 40 mg/kg, QD, day 28) was 512 ± 206%, the “Body weight (mean ± SEM)” value ([1]; 40 mg/kg, QD, day 28) was 21.3 ± 0.5 and the “body weight loss as indirect measure of toxicity” value ([1]; all dose groups 10-40 mg/kg QD, 10-20 mg/kg BID) was “No groups lost weight obviously”. For the same compound, the toxicity / tolerability ([1]; tumor-bearing BALB/c nude mice, all dose groups) was “no obvious toxicity; also recorded: does not have significant toxicity and is well tolerated”, the IC50 (HCC1954) was 2710 nM and the IC50 (DU4475) was 240 nM. For the same compound, the IC50 (MCF7) was 930 nM and the IC50 (ZR-75-1) was 1320 nM.
